From patent publication US9493426B2, “Quinazolinone derivatives useful as FGFR kinase modulators” (priority 2013, dated 2016)
Where two headings read alike, the source gives them in different places.

Assays:
[1] = biological target: T1, Ba/F3-FGFR1-transfected cells (Homo sapiens, UniProt P11362); experiment: Ba/F3-FGFR1 (minus IL3 or plus IL3) cellular proliferation assay; assay type: cell-based; conditions: 24 hours, Alamar Blue
T1 construct: other: minus IL3; 24 hours, Alamar Blue
Procedure: Ba/F3-FGFR1 (Minus IL3 or Plus IL3) (Cellular Proliferation Assay)
(§1) In a 384 well plate, 100 nl of compound dilution in DMSO was sprayed before adding 50 μl cell culture medium (phenol red free RPMI-1640, 10% FBS, 2 mM L-Glutamine and 50 μg/ml Gentamycin) containing 20000 cells per well of Ba/F3-FGFR1-transfected cells. Cells were put in an incubator at 37° C. and 5% CO2. After 24 hours, 10 μl of Alamar Blue solution (0.5 mM K3Fe(CN)6, 0.5 mM K4Fe(CN)6, 0.15 mM Resazurin and 100 mM Phosphate Buffer) was added to the wells, incubated for 4 hours at 37° C. and 5% CO2 before RFU's (Relative Fluorescence Units) (ex. 540 nm., em. 590 nm.) were measured in a fluorescence plate reader.
(§2) In this assay, the inhibitory effect of different compound concentrations (range 10 μM to 0.1 nM) was determined and used to calculate an IC50 (M) and pIC50 (−log IC50) value. As a counterscreen the same experiment was performed in the presence of 10 ng/ml murine IL3.

FGFR3 = biological target: T2, FGFR3 (Homo sapiens, UniProt P22607); experiment: Enzyme binding assay (KINOMEscan) FGFR3; conditions: pKd = -log Kd (M), read-out: FGFR3_pKd (converted)
T2 construct: purchased DiscoveRx Corporation
Procedure: (§3) Enzyme Binding Assays (KINOMEscan®)
(§4) Kinase enzyme binding affinities of compounds disclosed herein were determined using the KINOMEscan® technology performed by DiscoveRx Corporation, San Diego, Calif., USA (www.kinomescan.com).

[2] = biological target: T3, Ba/F3-KDR-transfected cells (Homo sapiens, UniProt P35968, cells depend on it, form not given); experiment: Ba/F3-KDR (minus IL3 or plus IL3) cellular proliferation assay; assay type: cell-based; conditions: 24 hours, Alamar Blue
T3 construct: BAF3-KDR (MIN IL3 pIC50); other: minus IL3; 24 hours, Alamar Blue
Procedure: Ba/F3-KDR (Minus IL3 or Plus IL3) (Cellular Proliferation Assay)
as §1, with “Ba/F3-KDR-transfected” for “Ba/F3-FGFR1-transfected”
as §2

VEGFR2 = biological target: T4, VEGFR2 (Homo sapiens, UniProt P35968); experiment: Enzyme binding assay (KINOMEscan) VEGFR2; conditions: pKd = -log Kd (M), read-out: VEGFR2_pKd (converted)
T4 construct: purchased DiscoveRx Corporation
Procedure: as §3, §4

[3] = biological target: T5, Ba/F3-FGFR3-transfected cells (Homo sapiens, UniProt P22607, cells depend on it, form not given); experiment: Ba/F3-FGFR3 (minus IL3 or plus IL3) cellular proliferation assay; assay type: cell-based; conditions: 24 hours, Alamar Blue
T5 construct: BAF3-FGFR3 (MIN IL3 pIC50); other: minus IL3; 24 hours, Alamar Blue
Procedure: Ba/F3-FGFR3 (Minus IL3 or Plus IL3) (Cellular Proliferation Assay)
as §1, with “Ba/F3-FGFR3-transfected” for “Ba/F3-FGFR1-transfected”
as §2

KDR (h) = KDR (h) (Homo sapiens, UniProt P35968); experiment: KDR (VEGFR2) (enzymatic assay), TR-FRET; assay type: biochemical; conditions: 3 μM ATP; pIC50 = -log IC50 (M); read-out: VEGFR KDR pIC50 (converted)
Procedure: KDR (VEGFR2) (Enzymatic Assay)
In a final reaction volume of 30 μL, KDR (h) (150 ng/ml) was incubated with 50 mM HEPES pH 7.5, 6 mM MnCl2, 1 mM DTT, 0.1 mM Na3VO4, 0.01% Triton-X-100, 500 nM Btn-Flt3 and 3 μM ATP in the presence of compound (1% DMSO final). After incubation for 120 minutes at room temperature the reaction was stopped with 2.27 nM EU-anti P-Tyr, 7 mM EDTA, 31.25 nM SA-XL-665 and 0.02% BSA which was present for 60 minutes at room temperature. Time-Resolved Fluorescence Resonance Energy Transfer (TR-FRET) signal (ex340 nm. Em 620 nm, em 655 nm) was measured afterwards and results are expressed in RFU (Relative Fluorescence Units). In this assay, the inhibitory effect of different compound concentrations (range 10 μM to 0.1 nM) was determined and used to calculate an IC50 (M) and pIC50 (−log IC50) value.

FGFR4 = biological target: T6, FGFR4 (Homo sapiens, UniProt P22455); experiment: Enzyme binding assay (KINOMEscan) FGFR4; conditions: pKd = -log Kd (M), read-out: FGFR4_pKd (converted)
T6 construct: purchased DiscoveRx Corporation
Procedure: as §3, §4

FGFR2 = biological target: T7, FGFR2 (Homo sapiens, UniProt P21802); experiment: Enzyme binding assay (KINOMEscan) FGFR2; conditions: pKd = -log Kd (M), read-out: FGFR2_pKd (converted)
T7 construct: purchased DiscoveRx Corporation
Procedure: as §3, §4

FGFR4 (h) = FGFR4 (h) (Homo sapiens, UniProt P22455); experiment: FGFR4 (enzymatic assay), TR-FRET; assay type: biochemical; conditions: 5 μM ATP; pIC50 = -log IC50 (M); read-out: FGFR 4 pIC50 (converted)
FGFR3 (h) = FGFR3 (h) (Homo sapiens, UniProt P22607); experiment: FGFR3 (enzymatic assay), TR-FRET; assay type: biochemical
FGFR2 (h) = FGFR2 (h) (Homo sapiens, UniProt P21802); experiment: FGFR2 (enzymatic assay), TR-FRET; assay type: biochemical; conditions: 0.4 μM ATP; pIC50 = -log IC50 (M); read-out: FGFR 2 pIC50 (converted)
FGFR1 (h) = FGFR1 (h) (Homo sapiens, UniProt P11362); experiment: FGFR1 (enzymatic assay), TR-FRET; assay type: biochemical
FGFR1 = biological target: T8, FGFR1 (Homo sapiens, UniProt P11362); experiment: Enzyme binding assay (KINOMEscan) FGFR1; conditions: FGFR1_pKd, pKd = -log Kd (M)
T8 construct: purchased DiscoveRx Corporation
Procedure: as §3, §4

[4] = biological target: Ba/F3-FGFR4-transfected cells (Homo sapiens, UniProt P22455, cells depend on it, form not given); experiment: Ba/F3-FGFR4 cellular proliferation assay; assay type: cell-based; conditions: 24 hours, Alamar Blue
Procedure: Ba/F3-FGFR4 (Cellular Proliferation Assay)
as §1, with “Ba/F3-FGFR4-transfected” for “Ba/F3-FGFR1-transfected”
In this assay, the inhibitory effect of different compound concentrations (range 10 μM to 0.1 nM) was determined and used to calculate an IC50 (M) and pIC50 (−log IC50) value.

[5] = 25 μM ATP, pIC50 = -log IC50 (M), read-out: FGFR3 pIC50 (converted)

T3 sequence (P35968 whole entry, looked up, change not shown): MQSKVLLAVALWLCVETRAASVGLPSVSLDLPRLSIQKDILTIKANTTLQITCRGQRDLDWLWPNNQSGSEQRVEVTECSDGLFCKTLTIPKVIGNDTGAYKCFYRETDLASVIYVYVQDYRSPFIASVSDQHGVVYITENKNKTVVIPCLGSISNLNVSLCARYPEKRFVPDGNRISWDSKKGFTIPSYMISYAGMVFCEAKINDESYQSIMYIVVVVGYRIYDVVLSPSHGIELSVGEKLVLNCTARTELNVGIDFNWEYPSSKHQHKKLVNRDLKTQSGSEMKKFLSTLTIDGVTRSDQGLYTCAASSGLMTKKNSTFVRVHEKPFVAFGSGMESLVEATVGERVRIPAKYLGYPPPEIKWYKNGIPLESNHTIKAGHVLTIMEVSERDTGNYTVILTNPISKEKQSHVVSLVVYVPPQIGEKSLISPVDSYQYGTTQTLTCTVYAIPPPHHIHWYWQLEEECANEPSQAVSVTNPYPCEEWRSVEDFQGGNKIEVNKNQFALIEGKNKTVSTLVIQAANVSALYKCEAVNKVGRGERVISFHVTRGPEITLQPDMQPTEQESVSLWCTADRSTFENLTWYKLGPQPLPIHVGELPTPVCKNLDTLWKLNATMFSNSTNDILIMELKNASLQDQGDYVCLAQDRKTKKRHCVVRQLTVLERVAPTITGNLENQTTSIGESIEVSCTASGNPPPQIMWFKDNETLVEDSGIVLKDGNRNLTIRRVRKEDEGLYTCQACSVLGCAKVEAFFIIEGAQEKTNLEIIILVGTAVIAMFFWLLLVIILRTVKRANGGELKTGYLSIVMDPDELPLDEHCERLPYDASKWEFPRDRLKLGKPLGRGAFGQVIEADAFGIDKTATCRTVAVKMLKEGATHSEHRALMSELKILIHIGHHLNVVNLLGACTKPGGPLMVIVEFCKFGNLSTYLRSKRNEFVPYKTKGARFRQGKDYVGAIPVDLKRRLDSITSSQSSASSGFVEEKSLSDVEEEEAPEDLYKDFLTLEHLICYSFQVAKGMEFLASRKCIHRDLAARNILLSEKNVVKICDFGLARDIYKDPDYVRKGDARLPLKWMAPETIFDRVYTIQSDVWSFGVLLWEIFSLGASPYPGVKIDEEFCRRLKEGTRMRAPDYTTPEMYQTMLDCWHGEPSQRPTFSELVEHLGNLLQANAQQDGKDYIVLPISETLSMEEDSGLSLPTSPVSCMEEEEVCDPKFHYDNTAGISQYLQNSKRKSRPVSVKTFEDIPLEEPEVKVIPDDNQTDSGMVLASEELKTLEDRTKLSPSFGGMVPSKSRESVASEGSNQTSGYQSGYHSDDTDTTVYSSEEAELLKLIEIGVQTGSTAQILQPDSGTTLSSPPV
Chain of FGFR4 (h) (P22455 22-802): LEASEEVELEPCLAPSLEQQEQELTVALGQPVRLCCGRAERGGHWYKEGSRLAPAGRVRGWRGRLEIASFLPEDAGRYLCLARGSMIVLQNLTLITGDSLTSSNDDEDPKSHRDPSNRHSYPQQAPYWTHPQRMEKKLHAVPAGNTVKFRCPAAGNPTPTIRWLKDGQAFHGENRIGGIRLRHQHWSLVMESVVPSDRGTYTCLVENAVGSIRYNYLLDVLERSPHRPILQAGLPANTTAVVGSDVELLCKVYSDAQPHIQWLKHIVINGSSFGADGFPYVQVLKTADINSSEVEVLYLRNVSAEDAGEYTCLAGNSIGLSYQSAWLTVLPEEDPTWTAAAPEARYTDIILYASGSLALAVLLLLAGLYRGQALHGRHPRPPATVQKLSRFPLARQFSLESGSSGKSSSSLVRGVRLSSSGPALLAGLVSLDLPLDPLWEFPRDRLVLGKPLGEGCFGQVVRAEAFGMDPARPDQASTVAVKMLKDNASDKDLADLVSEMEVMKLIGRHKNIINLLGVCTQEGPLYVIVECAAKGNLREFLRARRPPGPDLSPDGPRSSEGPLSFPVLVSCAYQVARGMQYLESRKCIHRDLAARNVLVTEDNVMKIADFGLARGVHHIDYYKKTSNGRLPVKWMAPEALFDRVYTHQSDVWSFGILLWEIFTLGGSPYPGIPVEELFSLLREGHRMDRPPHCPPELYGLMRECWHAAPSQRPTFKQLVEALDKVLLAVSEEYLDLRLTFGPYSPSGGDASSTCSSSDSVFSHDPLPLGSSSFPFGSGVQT
Chain of Ba/F3-FGFR4-transfected cells (P22455 whole entry, looked up, change not shown): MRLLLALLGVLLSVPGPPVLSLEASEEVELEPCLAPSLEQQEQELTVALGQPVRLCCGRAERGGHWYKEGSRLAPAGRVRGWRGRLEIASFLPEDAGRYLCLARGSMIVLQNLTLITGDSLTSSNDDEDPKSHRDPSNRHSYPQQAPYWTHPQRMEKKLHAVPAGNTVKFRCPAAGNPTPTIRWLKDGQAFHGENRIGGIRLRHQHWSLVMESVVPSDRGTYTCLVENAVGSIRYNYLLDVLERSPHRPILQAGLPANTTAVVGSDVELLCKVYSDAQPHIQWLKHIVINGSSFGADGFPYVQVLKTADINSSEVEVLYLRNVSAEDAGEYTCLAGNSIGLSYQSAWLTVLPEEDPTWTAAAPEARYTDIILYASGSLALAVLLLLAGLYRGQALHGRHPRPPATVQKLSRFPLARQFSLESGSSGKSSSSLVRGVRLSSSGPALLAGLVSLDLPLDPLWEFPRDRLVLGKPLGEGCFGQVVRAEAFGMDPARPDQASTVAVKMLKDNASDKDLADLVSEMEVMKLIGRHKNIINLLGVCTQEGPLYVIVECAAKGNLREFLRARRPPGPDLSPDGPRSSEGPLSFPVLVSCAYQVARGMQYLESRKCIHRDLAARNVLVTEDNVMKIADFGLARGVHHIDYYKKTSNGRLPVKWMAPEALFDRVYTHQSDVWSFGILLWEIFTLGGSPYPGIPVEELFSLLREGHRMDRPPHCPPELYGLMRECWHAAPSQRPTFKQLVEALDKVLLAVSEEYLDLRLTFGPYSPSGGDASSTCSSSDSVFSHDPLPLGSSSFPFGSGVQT
Chain of FGFR3 (h) (P22607 23-806): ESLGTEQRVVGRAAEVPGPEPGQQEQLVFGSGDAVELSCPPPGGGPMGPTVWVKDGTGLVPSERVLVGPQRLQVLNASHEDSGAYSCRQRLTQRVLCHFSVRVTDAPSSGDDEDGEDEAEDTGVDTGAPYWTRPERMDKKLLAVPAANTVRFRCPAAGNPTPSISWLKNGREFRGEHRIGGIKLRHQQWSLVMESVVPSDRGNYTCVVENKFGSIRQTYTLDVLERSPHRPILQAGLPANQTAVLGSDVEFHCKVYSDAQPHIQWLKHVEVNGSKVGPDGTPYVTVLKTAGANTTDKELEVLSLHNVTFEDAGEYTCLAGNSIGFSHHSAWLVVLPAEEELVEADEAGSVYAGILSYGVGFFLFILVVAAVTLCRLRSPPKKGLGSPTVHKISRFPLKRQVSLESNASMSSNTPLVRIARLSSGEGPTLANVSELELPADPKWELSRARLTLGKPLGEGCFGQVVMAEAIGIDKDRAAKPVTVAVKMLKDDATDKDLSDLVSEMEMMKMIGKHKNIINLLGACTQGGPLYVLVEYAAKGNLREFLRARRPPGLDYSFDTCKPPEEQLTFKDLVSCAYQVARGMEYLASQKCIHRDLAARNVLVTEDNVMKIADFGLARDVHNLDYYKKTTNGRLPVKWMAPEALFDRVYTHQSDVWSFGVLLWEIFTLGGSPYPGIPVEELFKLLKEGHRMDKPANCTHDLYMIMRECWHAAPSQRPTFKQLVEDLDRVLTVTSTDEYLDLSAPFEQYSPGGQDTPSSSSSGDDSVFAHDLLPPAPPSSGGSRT
T5 sequence (P22607 whole entry, looked up, change not shown): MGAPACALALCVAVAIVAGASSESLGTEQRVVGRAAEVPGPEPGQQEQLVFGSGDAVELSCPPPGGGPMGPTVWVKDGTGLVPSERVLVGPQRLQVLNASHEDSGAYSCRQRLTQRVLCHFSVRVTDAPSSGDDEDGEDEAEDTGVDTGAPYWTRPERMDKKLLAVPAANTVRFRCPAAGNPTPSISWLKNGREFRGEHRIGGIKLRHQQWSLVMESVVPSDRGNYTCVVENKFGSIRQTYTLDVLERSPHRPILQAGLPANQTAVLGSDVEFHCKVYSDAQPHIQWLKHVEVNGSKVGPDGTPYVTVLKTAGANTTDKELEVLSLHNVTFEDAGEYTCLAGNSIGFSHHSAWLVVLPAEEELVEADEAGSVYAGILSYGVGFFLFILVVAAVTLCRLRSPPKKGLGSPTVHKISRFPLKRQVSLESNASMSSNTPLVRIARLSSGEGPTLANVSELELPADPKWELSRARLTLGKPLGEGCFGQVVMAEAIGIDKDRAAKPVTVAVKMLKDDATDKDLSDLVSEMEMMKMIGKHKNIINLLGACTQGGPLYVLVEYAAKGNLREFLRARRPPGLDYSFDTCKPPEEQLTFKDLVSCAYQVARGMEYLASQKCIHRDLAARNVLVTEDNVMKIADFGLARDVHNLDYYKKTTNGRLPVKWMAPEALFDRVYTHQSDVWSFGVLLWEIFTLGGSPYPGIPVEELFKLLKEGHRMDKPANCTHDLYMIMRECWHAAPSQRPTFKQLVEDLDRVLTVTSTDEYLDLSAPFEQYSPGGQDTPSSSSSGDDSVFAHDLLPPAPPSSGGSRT
T6 sequence (P22455 22-802): as the sequence (P22455 22-802) above
T2 sequence (P22607 23-806): as the sequence (P22607 23-806) above

Row | Structure (SMILES) | BAF3-FGFR1 (MIN IL3 pIC50) [1] | Kd (FGFR3) [M] | BAF3-KDR (MIN IL3 pIC50) [2] | Kd (VEGFR2) [M] | BAF3-FGFR3 (MIN IL3 pIC50) [3] | IC50 (KDR (h)) [M] | Kd (FGFR4) [M] | Kd (FGFR2) [M] | IC50 (FGFR4 (h)) [M] | IC50 (FGFR3 (h); [5]) [M] | melting point [°C] | IC50 (FGFR2 (h)) [M] | IC50 (FGFR1 (h)) [nM] | Kd (FGFR1) [M] | BAF3-FGFR4 (pIC50) [4] | IC50 (FGFR3 (h)) [M]
1 | COc1cc(OC)cc(N(CCO)c2ccc3ncn(-c4ccccc4)c(=O)c3c2)c1 [Compound 7] | <5 | > 1e-06 | <5 | > 1e-06 | <5 | > 1e-06 | > 1e-06 | > 1e-06 | 3.98e-06 | 3.16e-07 | 171 | 3.98e-07 | 631 | > 1e-06 | <5 | –
2 | COc1cc(OC)c(F)c(N(CCNC(C)C)c2ccc3ncn(-c4cnn(C)c4)c(=O)c3c2)c1 [Compound 17] | 7.6 | – | 5.5 | – | 7.7 | 1.26e-07 | – | – | 3.16e-08 | 1.58e-08 | 132 | 1e-08 | 7.94 | – | 6.8 | –
3 | COc1cc(OC)c(F)c(N(CCO)c2ccc3ncn(-c4cnn(C)c4)c(=O)c3c2)c1F [Compound 18] | 7.2 | – | 5.6 | – | ~7.68 | 3.98e-08 | – | – | 5.01e-09 | – | 165 | 2.51e-09 | 1.58 | – | 6.6 | 1.58e-09
4 | COc1cc(OC)c(F)c(N(CCNC(C)C)c2ccc3ncn(-c4cnn(C)c4)c(=O)c3c2)c1F [Compound 19] | 8.8 | 5.01e-09 | 6.2 | 1.58e-08 | 8.6 | 1.26e-07 | 5.01e-09 | 5.01e-09 | 2e-08 | 1.58e-08 | 162 | 1.58e-08 | 5.01 | 1.58e-09 | 8.2 | –
5 | CNCCN(c1ccc2ncn(-c3cnn(C)c3)c(=O)c2c1)c1c(F)c(OC)cc(OC)c1F [Compound 20] | 7.6 | – | 6.0 | – | 7.6 | 1.58e-07 | – | – | 2.51e-08 | – | 141 | 1.26e-08 | 10 | – | 6.7 | 1.26e-08
6 | COc1cc(OC)c(F)c(N(Cc2ncc[nH]2)c2ccc3ncn(-c4cnn(C)c4)c(=O)c3c2)c1F [Compound 22] | 6.8 | – | 5.3 | – | 7.4 | 1.26e-07 | – | – | 5.01e-09 | 3.16e-09 | 231 | 5.01e-09 | 3.98 | – | 6.7 | –
7 | COc1cc(OC)cc(C(=O)c2ccc3ncn(-c4cnn(C)c4)c(=O)c3c2)c1 [Compound 24] | <5 | – | <5 | – | <5 | > 1e-06 | – | – | > 1e-06 | 7.94e-07 | 194 | 7.94e-07 | > 1000 | – | <5 | –
